Test results published in patent US8710178B2, “Macrocyclic cysteine protease inhibitors and compositions thereof” (Lincoln University, priority 2006, dated 2014).
Like-named read-outs stand apart in the source and are kept apart here.

Assays:
cathepsin B = cathepsin B (Homo sapiens, UniProt P07858); test: BODIPY-casein fluorescence-based enzyme assay, cathepsin B; format: biochemical; details: BODIPY-casein substrate
α-chymotrypsin = α-chymotrypsin (Bos taurus, UniProt P00766); test: BODIPY-casein fluorescence-based enzyme assay, α-chymotrypsin; format: biochemical; details: BODIPY-casein substrate
calpain I (μ calpain) = target: T1, calpain I (μ calpain) (Homo sapiens, UniProt P07384); test: BODIPY-casein fluorescence-based enzyme assay, calpain I; format: biochemical; details: BODIPY-casein substrate
T1 sequence (P07384 1-714): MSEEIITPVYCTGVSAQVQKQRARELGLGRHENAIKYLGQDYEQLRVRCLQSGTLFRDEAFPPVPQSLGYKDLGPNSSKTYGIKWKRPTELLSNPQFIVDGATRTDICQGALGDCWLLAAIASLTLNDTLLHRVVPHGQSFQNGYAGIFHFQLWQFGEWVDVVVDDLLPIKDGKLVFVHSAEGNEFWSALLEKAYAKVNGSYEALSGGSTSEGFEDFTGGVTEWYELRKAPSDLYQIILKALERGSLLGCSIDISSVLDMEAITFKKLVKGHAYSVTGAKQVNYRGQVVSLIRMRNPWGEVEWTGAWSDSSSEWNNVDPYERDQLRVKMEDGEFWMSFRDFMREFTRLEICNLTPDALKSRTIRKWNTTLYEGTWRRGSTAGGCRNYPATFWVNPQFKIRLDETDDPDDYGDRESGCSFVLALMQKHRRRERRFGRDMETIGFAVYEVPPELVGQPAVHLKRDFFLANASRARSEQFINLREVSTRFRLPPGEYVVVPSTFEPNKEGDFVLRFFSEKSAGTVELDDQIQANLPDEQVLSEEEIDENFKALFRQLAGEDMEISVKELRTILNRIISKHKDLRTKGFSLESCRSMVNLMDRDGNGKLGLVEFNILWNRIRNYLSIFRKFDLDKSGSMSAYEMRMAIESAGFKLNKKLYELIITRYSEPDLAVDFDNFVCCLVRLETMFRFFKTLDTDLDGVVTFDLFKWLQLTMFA
T1 sequence (P04632 1-268 partner): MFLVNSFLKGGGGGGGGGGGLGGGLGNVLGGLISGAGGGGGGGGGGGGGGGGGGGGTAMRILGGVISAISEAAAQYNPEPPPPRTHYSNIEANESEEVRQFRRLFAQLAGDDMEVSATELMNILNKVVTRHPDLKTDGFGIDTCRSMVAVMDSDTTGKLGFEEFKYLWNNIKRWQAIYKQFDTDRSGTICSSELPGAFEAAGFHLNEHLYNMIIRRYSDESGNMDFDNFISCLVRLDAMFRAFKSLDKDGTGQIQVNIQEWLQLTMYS

papain = target: T2, papain (Carica papaya, UniProt P00784); test: BODIPY-casein fluorescence-based enzyme assay, papain; format: biochemical; details: BODIPY-casein substrate
T2 sequence (P00784 134-345): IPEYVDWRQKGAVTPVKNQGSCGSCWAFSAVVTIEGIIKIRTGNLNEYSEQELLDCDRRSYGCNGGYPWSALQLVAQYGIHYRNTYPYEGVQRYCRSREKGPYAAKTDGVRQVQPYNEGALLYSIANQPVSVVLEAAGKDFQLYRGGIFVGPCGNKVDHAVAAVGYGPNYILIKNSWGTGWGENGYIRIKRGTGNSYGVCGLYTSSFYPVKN
Experimental: (§1) The inhibitors were assayed against several enzymes using a BODIPY-casein substrate in the fluorescence-based assay procedure of V. F. Thompson, S. Saldana, J. Cong and D. E. Goll, Anal. Biochem. 2000, 279, 170.

calpain II (m calpain) = target: T3, calpain II (m calpain) (Homo sapiens, UniProt P17655); test: BODIPY-casein fluorescence-based enzyme assay, calpain II / m-calpain; format: biochemical; details: BODIPY-casein substrate
T3 sequence (P17655 1-700): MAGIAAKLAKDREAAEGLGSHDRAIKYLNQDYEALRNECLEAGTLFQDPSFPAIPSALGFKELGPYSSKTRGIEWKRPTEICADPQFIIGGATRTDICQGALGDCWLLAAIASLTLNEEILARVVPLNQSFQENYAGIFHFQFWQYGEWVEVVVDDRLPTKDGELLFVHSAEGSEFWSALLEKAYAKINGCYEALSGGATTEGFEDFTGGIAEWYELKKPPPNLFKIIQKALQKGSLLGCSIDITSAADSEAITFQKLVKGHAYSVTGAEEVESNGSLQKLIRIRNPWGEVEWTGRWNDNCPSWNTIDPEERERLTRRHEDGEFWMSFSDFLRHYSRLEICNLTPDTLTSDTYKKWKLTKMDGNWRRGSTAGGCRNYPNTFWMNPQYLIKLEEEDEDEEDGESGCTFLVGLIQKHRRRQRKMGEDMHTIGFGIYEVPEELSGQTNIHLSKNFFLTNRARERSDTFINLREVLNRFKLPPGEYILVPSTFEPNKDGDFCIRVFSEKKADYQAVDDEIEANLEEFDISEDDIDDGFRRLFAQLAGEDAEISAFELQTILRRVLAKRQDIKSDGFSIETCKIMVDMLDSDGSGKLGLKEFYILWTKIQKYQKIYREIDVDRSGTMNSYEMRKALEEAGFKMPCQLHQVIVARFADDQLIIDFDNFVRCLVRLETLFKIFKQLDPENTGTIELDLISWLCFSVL
T3 sequence (P04632 1-268 partner): T1 sequence (P04632 1-268 partner)
Experimental: as §1
A number of the compounds were assayed against m-calpain using a BODIPY-casein substrate in the fluorescence-based assay procedure of V. F. Thompson, S. Saldana, J. Cong and D. E. Goll, Anal. Biochem. 2000, 279, 170.

eye of a lamb = test: Eye irritation test of ointment in a lamb; format: in vivo; details: ointment (50 mg) comprising 1% of compound, one eye of a lamb, three times in one day
[1] = system: lambs genetically predisposed to cataracts; test: Cataract progression in lambs genetically predisposed to cataracts; details: for cataract progression in both eyes versus placebo-treated lambs: 1% ointment (25 mg) twice daily for three months, p=0.066 (compound 9), p=0.26 (compound 8); for cataract progression, treated right eye versus left eye: 1% ointment (25 mg) twice daily to right eye for three months, slit-lamp microscope
Experimental: A flock of 63 lambs genetically predisposed to cataracts were split into three equal groups. […] A placebo ointment (25 mg) was applied twice daily to the right eye of the final group of 21 lambs for three months starting when they were three to four months old.
The progression of cataracts was determined by a veterinary ophthalmologist with a slit-lamp microscope.

[2] = Table 2, read-out: IC50 calpain II (m calpain)
[3] = Table 3, read-out: IC50 against m-calpain

| SMILES | IC50 (cathepsin B) | IC50 (α-chymotrypsin) | IC50 (calpain I (μ calpain)) | IC50 (papain) | IC50 (calpain II (m calpain); [2]) | IC50 (calpain II (m calpain); [3]) | sign of irritation (eye of a lamb) | cataract progression in both eyes versus placebo-treated lambs [1] | cataract progression, treated right eye versus left eye [1] | slowing of cortical cataract progression ([1]; over a 12 week period, flock of lambs genetically predisposed to cataracts) | signs of toxicity ([1]; over a 12 week period, lambs) |
| --- | --- | --- | --- | --- | --- | --- | --- | --- | --- | --- | --- |
| CC(C)C[C@@H]1NC(=O)[C@@H](NC(=O)OCc2ccccc2)Cc2ccc(cc2)OCCCCC[C@@H](C=O)NC1=O [Compound 28] | 770 nM | > 50000 nM | 170 nM | > 50000 nM | 180 nM | 180 nM |  |  |  |  |  |
| CC(C)C[C@@H]1NC(=O)[C@@H](NC(=O)OCc2ccccc2)Cc2ccc(cc2)OCCCC[C@@H](C=O)NC1=O [Compound 9] | 70 nM | > 50000 nM | 223 nM | > 50000 nM | 30 nM | 30 nM | No sign of irritation | significantly slower | did not show significantly slower cataract progression | 30% | no signs of toxicity |
| CC(C)C[C@@H]1NC(=O)[C@@H](NC(=O)OCc2ccccc2)Cc2ccc(cc2)OCCCC[C@@H](CO)NC1=O [Compound 8] | 290 nM | > 50000 nM | 1750 nM | > 50000 nM | 700 nM | 700 nM |  | significantly slower | did not show significantly slower cataract progression |  |  |
| CC(C)C[C@@H]1NC(=O)[C@@H](NC(=O)OCc2ccccc2)Cc2ccc(cc2)OCCCCC[C@@H](CO)NC1=O [Compound 27] | 1100 nM | > 50000 nM | 1340 nM | > 50000 nM | 1100 nM | 1340 nM |  |  |  |  |  |
